Usually Ki stands for a dissociation constant, usually derived from enzyme kinetics or from competition with a known ligand. One may read the kinact as the rate constant of inactivation at saturating inhibitor.

Like-named read-outs stand apart in the source and are kept apart here.

We go through seven compounds from patent US10183039B2, “Methods for the production of collagen IV” (Vanderbilt University, priority 2013, dated 2019).

In one assay the test system is PFHR-9 cells. Put plainly: Collagen IV sulfilimine crosslink formation in PFHR-9 cell culture (NC1 hexamer, SDS-PAGE). Type of assay: cell-based, mouse. As to conditions: inhibitor present during cellular deposition of basement membrane; FIG. 2A: PHG 50 μM, MMI 1 mM, KI 10 mM, 3-AT 10 mM, BAPN 500 μM, putrescine 2.5 mM.
In the next assay the target is T1, thyroid peroxidase (Homo sapiens, UniProt P07202).
T1 sequence (P07202 19-933): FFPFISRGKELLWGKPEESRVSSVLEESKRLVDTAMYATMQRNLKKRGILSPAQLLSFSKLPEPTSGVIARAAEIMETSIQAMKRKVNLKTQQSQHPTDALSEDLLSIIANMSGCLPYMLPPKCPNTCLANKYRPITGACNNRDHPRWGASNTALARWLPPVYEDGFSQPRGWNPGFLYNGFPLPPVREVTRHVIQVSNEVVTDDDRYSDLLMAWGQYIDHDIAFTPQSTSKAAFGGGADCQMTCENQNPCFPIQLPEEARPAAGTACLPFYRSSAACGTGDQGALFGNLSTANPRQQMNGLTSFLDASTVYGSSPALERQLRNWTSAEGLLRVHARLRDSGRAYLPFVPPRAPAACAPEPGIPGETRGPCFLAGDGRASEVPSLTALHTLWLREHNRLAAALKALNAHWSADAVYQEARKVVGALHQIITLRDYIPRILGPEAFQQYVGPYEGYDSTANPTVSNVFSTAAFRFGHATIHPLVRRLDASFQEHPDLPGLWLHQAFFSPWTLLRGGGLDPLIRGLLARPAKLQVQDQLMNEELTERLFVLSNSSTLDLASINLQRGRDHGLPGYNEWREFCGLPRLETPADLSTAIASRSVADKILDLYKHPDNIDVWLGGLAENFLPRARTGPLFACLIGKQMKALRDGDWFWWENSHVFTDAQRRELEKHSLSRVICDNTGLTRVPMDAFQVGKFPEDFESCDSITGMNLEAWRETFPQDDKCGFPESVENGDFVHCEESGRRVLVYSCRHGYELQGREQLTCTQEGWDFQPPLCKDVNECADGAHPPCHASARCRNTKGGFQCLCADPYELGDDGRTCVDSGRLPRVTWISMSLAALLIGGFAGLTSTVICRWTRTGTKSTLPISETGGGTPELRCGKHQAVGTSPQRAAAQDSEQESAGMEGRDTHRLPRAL
As to conditions: cited from earlier work.

The target in another assay is T2, myeloperoxidase (Homo sapiens, UniProt P05164).
T2 sequence (P05164 49-745): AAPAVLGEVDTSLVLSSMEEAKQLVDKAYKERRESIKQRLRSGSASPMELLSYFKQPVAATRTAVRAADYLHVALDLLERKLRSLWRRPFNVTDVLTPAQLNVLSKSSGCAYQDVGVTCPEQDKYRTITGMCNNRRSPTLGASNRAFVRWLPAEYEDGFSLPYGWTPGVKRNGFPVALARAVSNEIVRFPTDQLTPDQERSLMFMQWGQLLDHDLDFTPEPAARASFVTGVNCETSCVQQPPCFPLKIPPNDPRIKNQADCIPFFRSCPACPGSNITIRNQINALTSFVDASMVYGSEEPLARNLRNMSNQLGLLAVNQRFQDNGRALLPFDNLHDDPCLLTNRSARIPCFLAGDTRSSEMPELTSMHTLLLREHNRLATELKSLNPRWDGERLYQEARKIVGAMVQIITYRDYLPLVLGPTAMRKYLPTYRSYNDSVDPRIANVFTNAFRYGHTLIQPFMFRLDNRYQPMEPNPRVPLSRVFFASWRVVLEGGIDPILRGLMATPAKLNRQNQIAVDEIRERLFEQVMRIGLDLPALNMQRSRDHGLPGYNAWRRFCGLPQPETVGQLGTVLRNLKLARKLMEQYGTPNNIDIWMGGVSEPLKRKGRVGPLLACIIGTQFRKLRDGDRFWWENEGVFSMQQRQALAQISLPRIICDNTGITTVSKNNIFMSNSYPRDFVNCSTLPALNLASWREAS
As to conditions: cited from earlier work.

For assay [1], the target named is horseradish peroxidase (HRP) (Armoracia rusticana, UniProt P00433). Particulars: with H2O2; cited from earlier work.
Assay [2] has as its system PFHR-9 basement membrane collagen IV. Put plainly: HEK293 cell overlay on uncrosslinked PFHR-9 collagen IV networks. As to conditions: HEK293 cells plated on uncrosslinked PFHR-9 basement membrane; PHG 50 μM where present. Type of assay: cell-based, mouse. How it is done: FIGS. 5A-D—Peroxidasin uniquely crosslinks native collagen IV networks. (FIG. 5A) Experimental design of ‘overlay’ experiments. PFHR-9 cells were grown in the presence of phloroglucinol (PHG; 50 μM) to deposit uncrosslinked collagen IV (Col IV) networks. The cells were then removed, and the basement membrane was extracted with 4 M guanidine (Gdn) to inactivate endogenous peroxidasin. Cells stably transfected with human peroxidasin (PXDN) or untransfected HEK293 cells (WT HEK) were plated on top of the PFHR9 basement membrane, which was subsequently analyzed for collagen IV crosslink content. (FIG. 5B) Collagen IV-sulfilimine bond formation in the indicated experimental conditions as shown by stained SDS-PAGE gel. Two (WT HEK cells) or three (PXDN, with or without PHG) out of five independent experiments are shown. MW, molecular weight. (FIG. 5C) Coomassie blue-stained gel of collagen IVNC1 hexamers isolated from uncrosslinked PFHR-9 basement membrane overlaid with HEK293T cells transiently transfected with human peroxidasin cDNA, mouse myeloperoxidase cDNA (MPO), mouse lactoperoxidase cDNA (LPO) or empty vector (Mock). […]
PFHR-9 cells were grown in the presence of 50 μM phloroglucinol to produce noncrosslinked collagen IV. […] Plates were incubated for 24-48 h, and collagen IV was analyzed for NC1 crosslink formation. […]

The next assay deals with Drosophila eggs. As to conditions: PHG in the food, excess dietary (100 μM) Br^−.
A further assay has as its target peroxidase (Drosophila melanogaster, UniProt Q9VZZ4). Particulars: Nelson et al., 1994; read-out: half-maximum inhibitory concentration (IC50); cited from earlier work.
A further assay relates to collagen IV NC1 hexamer. Kind of assay: Purified peroxidases reacted with uncrosslinked NC1 hexamer and H2O2. Type of assay: biochemical, mouse. As to conditions: 16 nM enzyme, 500 nM NC1 hexamer, 10 μM H2O2, 1×PBS. How it is done: (§1) (FIG. 3A) SDS-PAGE of reactions consisting of 16 nM purified human peroxidasin (PXDN), 500 nM monomeric NC1 hexamer (3 μM potential crosslinks) and 10 μM H2O2 in 1×PBS. Control reactions without H2O2 or in the presence of the peroxidase inhibitor phloroglucinol (PHG; 50 μM) were also conducted. D represents crosslinked dimeric NC1 subunits, and M denotes uncrosslinked monomeric subunits. MW, molecular weight. (FIG. 3B) Coomassie blue-stained gel after SDS-PAGE of collagen IVNC1 hexamer is shown to illustrate relative amounts of sulfilimine-crosslinked dimeric (D) and uncrosslinked monomeric (M) subunits after incubation of uncrosslinked PFHR-9 basement membranes in varying buffer halide concentrations (Br— or Cl— as K+ salt) with or without 1 mM H2O2. (FIG. 3C) PXDN-mediated hypohalous acid (HOX) production expressed as nmol hypohalous acid generated per nmol enzyme per min, measured in 1×PBS plus 100 μM NaBr. Values represent mean±s.e.m. (n=3). (FIG. 3D) HOCl production measured directly in 1×PBS without added Br—. Values denote mean±s.e.m. (n=4). […] (FIG. 3E) HOX production, measured in nmol HOX generated per nmol enzyme per min for myeloperoxidase (MPO), eosinophil peroxidase (EPO) or LPO in 1×PBS plus 100 μM NaBr. Values represent mean±s.e.m. (n=3).
PHG, phloroglucinol; MW, molecular weight.
If peroxidasin uses hypohalous acids as intermediates to form sulfilimine bonds, these intermediates should recapitulate the reaction when directly added to purified, uncrosslinked collagen IV NC1 hexamer. […] Alternatively, other peroxidasesis provided to form reactive hypohalous acids.

Assay [3] is described as follows: Hypohalous acid production by peroxidases (taurine haloamine trapping). Type of assay: biochemical. As to conditions: for hypohalous acid formation: 1×PBS plus 100 μM NaBr or without added Br—; for HOCl production: 1×PBS without added Br— (FIG. 3D). How it is done:
as §1
Hypohalous acids were trapped as stable taurine haloamines, which oxidize tetramethylbenzidine to yield a colorimetric measure of hypohalous acid concentration and production (Dypbukt et al., 2005).
Animal heme peroxidases, such as peroxidasin, myeloperoxidase, eosinophil peroxidase and lactoperoxidase, catalyze oxidative reactions using distinct halogenation and peroxidase cycles (Obinger, 2006). Both begin with hydrogen peroxide oxidation of the prosthetic heme iron to form an intermediate denoted compound I (Obinger, 2006). Compound I may oxidize halides into their respective hypohalous acids (or related oxidants in equilibrium), which may directly or indirectly halogenate susceptible moieties. Alternatively, compound I undergoes sequential reduction to form single electron-free radicals of energetically favorable substrates in the peroxidase cycle. Both pathways eventually regenerate reduced, native enzyme (Obinger, 2006). To determine whether peroxidasin forms sulfilimine bonds using a halogenation cycle, the inventors first tested whether peroxidasin crosslinks collagen IV in the absence of halides.

Chain of horseradish peroxidase (HRP) (P00433 31-338 limits assumed): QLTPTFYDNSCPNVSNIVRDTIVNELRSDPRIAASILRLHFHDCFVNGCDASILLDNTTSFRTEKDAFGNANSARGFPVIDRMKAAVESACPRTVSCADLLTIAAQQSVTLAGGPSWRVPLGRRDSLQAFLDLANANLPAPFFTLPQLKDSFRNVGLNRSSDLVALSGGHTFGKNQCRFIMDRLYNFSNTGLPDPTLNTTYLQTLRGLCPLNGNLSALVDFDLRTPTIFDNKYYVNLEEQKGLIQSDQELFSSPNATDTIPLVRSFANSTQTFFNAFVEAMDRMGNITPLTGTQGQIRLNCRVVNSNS
Chain of peroxidase (Q9VZZ4 24-1527): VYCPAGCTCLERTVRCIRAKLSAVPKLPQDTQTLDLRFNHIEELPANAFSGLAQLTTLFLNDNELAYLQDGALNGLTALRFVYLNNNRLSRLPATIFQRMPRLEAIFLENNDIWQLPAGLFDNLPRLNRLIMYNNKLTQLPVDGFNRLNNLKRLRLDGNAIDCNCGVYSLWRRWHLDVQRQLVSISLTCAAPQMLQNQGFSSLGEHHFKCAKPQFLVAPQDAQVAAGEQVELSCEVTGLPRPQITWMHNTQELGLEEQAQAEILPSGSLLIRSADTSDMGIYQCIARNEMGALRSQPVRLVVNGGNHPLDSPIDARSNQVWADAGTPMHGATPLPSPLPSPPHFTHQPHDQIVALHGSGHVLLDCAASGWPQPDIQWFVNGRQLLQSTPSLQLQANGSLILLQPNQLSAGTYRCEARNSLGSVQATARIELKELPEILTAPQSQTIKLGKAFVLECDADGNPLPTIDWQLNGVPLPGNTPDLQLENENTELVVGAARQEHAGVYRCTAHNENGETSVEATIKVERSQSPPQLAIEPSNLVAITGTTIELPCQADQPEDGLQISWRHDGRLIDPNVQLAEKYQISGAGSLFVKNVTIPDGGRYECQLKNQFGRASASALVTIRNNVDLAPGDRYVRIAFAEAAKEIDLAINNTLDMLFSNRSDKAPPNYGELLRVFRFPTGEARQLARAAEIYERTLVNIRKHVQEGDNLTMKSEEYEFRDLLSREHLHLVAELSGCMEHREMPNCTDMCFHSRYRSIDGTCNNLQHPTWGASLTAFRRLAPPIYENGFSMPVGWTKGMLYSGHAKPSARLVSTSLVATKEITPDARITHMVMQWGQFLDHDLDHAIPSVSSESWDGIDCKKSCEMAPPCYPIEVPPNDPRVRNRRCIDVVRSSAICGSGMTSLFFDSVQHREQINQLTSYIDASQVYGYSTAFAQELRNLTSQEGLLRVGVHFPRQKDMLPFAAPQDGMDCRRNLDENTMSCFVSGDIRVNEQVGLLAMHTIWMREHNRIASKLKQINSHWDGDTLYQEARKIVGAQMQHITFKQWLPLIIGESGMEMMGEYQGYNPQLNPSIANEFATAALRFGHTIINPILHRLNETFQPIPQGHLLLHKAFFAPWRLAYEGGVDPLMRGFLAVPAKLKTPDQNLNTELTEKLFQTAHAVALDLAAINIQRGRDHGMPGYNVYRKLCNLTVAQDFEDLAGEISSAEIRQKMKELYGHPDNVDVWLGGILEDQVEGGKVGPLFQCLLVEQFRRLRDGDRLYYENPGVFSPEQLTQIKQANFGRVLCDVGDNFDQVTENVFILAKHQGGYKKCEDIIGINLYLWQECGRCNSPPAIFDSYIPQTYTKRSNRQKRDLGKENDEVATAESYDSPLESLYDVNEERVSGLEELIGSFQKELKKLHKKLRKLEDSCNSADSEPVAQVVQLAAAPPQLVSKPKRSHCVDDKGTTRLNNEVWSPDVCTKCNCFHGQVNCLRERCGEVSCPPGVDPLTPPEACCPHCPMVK
Protocol for Drosophila eggs: All eggs deposited in a quadrant of a 55 mm laying cage were moved to a fresh phytagel surface and oriented with dorsal appendages facing the surface for quantitation of the aspect ratio which is calculated by dividing the anterior-posterior axis length by the egg's diameter. Eggs were collected after 168 hours of exposure to standard or experimental diets.
(FIG. 18B) Br^− concentration effect on egg aspect ratio, in single age-matched cohort of w^1118 flies, over time. Vertical axis represents mean aspect ratio (±S.E.M). […] Inset plotted as mean±95% C.I. and significance calculated with the Kruskall-Wallis test. […] PHG was administered in the food. All wild-type (w^1118) mothers were from the same cohort and reared identically, then divided into sub-cohorts for exposure to the indicated experimental diet.

As for `Nc1nc[nH]n1` [3-aminotriazole], the “formation of collagen IV crosslinks” value in the assay on PFHR-9 cells is “prevented formation of collagen IV crosslinks”. Also, on thyroid peroxidase (2 mM), the “inhibition of thyroid peroxidase” value is “near-complete inhibition”. For the same compound, the inhibition of myeloperoxidase entry on myeloperoxidase (10 mM) is recorded as “near-complete inhibition”.
As for `[N-]=[N+]=[N-]` [azide], in assay [1], the Ki is 1470 µM and the kinact is 0.69 min⁻¹.
In the case of `Cn1cc[nH]c1=S` [methimazole], the “formation of collagen IV crosslinks” value in the assay with PFHR-9 cells is “prevented formation of collagen IV crosslinks”. Besides, the IC50 on thyroid peroxidase is 0.8 µM. The inhibition of myeloperoxidase on myeloperoxidase (3 mM) is recorded as 70%.
As for `Oc1cc(O)cc(O)c1` [phloroglucinol, reference compound], the “formation of collagen IV crosslinks” value with PFHR-9 cells is recorded as “prevented formation of collagen IV crosslinks”. Besides, the “crosslinking of native collagen IV network by overlaid cells” value in assay [2] is “failed to crosslink collagen IV”. Also, the figures for the “egg aspect ratio under peroxidasin inhibition” value with Drosophila eggs and in the assay on Drosophila eggs (listed as PHG) were “dose-dependent suppression in egg aspect ratio” and “dose-dependent reduction in the exaggerated egg elongation”, respectively. For the same compound, the IC50 on peroxidase was 0.5 µM.
In the case of “eosinophil peroxidase: animal heme peroxidase used as comparator”, the “formation of sulfilimine crosslinks in NC1 hexamer” value (“formation of sulfilimine crosslinks” below) with collagen IV NC1 hexamer is on record as “formed sulfilimine crosslinks in collagen IV”. The hypohalous acid formation entry in assay [3] was “primarily yielded hypobromous acid”.
In the case of “lactoperoxidase: animal heme peroxidase used as comparator”, the “formation of sulfilimine crosslinks” value in the assay with collagen IV NC1 hexamer was “poorly catalyzed crosslink formation”. In [3], the hypohalous acid formation result was “formed neither hypohalous acid” and the HOCl production result is on record as “not statistically different from zero”.
For “peroxidasin: heterologously expressed and purified human peroxidasin, a basement membrane heme peroxidase”, the “formation of sulfilimine crosslinks” value in the assay on collagen IV NC1 hexamer is “robust formation of crosslinked dimeric subunits”. Also, in [3], the hypohalous acid formation result is “formed hypobromous and hypochlorous acid at modest rates with a preference for bromide”; the HOCl production result is recorded as “significantly greater than that mediated by lactoperoxidase”. Besides, in assay [2], the “crosslinking of native collagen IV network by overlaid cells” value is given as “Only peroxidasin formed sulfilimine bonds in collagen IV”.
